In PMC10591924 (Journal of medicinal chemistry, 2023):

Experiments:
HDAC4 = HDAC4 (Homo sapiens, UniProt P56524); test: Preincubation HDAC inhibition assay, HDAC4; format: biochemical; conditions: preincubation 1 h at 25 °C
HDAC6 [1] = target: T1, HDAC6 (Homo sapiens, UniProt Q9UBN7); test: Binding kinetics via the Progression Method at HDAC6; format: biochemical; conditions: progression curves, substrate at five times KM, 37 °C
T1 sequence (Q9UBN7 1-1215): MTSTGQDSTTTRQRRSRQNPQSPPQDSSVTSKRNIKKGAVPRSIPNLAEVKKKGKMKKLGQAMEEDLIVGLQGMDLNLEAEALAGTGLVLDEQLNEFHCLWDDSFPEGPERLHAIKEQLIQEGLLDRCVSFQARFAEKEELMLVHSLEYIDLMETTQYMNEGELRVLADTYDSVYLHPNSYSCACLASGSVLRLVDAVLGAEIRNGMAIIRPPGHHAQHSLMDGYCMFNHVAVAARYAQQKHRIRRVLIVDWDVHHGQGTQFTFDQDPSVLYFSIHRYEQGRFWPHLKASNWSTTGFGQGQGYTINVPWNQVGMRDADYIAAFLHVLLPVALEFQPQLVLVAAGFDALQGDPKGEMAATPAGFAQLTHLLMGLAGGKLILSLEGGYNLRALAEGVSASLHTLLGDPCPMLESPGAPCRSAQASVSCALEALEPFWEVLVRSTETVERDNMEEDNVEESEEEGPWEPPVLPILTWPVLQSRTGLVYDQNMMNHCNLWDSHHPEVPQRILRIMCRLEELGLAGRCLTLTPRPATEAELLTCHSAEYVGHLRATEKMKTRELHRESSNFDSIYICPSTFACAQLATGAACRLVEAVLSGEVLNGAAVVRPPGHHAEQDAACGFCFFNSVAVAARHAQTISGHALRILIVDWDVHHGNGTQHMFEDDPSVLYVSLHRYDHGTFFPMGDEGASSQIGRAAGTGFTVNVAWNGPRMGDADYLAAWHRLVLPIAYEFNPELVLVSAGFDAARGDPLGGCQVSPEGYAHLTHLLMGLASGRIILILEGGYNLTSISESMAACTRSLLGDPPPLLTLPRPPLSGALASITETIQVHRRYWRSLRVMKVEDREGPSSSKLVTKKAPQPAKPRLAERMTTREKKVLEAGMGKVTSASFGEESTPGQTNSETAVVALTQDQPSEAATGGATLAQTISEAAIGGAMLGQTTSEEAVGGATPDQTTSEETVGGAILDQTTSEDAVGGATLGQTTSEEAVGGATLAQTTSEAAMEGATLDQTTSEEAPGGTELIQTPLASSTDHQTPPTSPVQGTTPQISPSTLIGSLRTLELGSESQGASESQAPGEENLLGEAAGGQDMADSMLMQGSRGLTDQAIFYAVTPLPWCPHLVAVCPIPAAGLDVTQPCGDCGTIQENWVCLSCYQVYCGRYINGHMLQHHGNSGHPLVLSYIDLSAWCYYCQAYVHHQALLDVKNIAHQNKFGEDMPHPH

HDAC2 = HDAC2 (Homo sapiens, UniProt Q92769); test: Preincubation HDAC inhibition assay, HDAC2; format: biochemical; conditions: preincubation 1 h at 25 °C
Sequence of HDAC2 (Q92769 whole entry): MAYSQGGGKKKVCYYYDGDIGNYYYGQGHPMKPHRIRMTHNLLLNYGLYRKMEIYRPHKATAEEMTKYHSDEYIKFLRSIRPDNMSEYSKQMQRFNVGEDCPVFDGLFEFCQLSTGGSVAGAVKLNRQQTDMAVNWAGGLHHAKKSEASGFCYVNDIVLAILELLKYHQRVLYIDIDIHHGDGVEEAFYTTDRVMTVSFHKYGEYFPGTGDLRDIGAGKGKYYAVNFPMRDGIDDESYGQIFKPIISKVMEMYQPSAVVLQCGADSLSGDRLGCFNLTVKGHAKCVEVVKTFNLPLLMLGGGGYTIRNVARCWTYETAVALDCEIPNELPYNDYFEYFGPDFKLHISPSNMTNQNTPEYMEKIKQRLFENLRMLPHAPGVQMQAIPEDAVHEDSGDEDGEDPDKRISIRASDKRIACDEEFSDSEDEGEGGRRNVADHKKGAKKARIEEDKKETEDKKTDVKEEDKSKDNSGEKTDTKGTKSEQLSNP

[2] = LC-MS control: inhibitor in size exclusion buffer without enzyme; format: physicochemical; conditions: 100 μM inhibitor in size exclusion buffer only (pH 7.5), overnight
HDAC1 = HDAC1 (Homo sapiens, UniProt Q13547); test: Preincubation HDAC inhibition assay, HDAC1; format: biochemical; conditions: preincubation 1 h at 25 °C
Sequence of HDAC1 (Q13547 whole entry): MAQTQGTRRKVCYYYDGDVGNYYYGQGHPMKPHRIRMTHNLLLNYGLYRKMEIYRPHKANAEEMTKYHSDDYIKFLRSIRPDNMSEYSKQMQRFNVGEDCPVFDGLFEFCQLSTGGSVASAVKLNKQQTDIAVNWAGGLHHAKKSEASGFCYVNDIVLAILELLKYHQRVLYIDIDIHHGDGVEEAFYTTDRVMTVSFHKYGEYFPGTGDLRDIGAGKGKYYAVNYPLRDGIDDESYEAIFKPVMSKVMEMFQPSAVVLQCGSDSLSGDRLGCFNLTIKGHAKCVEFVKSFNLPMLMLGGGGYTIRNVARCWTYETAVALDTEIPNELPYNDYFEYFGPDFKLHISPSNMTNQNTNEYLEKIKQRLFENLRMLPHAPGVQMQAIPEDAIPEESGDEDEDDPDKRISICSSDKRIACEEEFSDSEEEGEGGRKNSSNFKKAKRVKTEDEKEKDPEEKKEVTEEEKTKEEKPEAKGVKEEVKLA

HDAC6 [3] = target: T1, HDAC6; test: IC50-shift experiments at HDAC6; format: biochemical; conditions: preincubation 5, 60 and 120 min
HDAC6 [4] = target: T1, HDAC6; test: Preincubation HDAC inhibition assay, HDAC6; format: biochemical; conditions: preincubation 1 h at 25 °C

Sequence of HDAC4 (P56524 whole entry): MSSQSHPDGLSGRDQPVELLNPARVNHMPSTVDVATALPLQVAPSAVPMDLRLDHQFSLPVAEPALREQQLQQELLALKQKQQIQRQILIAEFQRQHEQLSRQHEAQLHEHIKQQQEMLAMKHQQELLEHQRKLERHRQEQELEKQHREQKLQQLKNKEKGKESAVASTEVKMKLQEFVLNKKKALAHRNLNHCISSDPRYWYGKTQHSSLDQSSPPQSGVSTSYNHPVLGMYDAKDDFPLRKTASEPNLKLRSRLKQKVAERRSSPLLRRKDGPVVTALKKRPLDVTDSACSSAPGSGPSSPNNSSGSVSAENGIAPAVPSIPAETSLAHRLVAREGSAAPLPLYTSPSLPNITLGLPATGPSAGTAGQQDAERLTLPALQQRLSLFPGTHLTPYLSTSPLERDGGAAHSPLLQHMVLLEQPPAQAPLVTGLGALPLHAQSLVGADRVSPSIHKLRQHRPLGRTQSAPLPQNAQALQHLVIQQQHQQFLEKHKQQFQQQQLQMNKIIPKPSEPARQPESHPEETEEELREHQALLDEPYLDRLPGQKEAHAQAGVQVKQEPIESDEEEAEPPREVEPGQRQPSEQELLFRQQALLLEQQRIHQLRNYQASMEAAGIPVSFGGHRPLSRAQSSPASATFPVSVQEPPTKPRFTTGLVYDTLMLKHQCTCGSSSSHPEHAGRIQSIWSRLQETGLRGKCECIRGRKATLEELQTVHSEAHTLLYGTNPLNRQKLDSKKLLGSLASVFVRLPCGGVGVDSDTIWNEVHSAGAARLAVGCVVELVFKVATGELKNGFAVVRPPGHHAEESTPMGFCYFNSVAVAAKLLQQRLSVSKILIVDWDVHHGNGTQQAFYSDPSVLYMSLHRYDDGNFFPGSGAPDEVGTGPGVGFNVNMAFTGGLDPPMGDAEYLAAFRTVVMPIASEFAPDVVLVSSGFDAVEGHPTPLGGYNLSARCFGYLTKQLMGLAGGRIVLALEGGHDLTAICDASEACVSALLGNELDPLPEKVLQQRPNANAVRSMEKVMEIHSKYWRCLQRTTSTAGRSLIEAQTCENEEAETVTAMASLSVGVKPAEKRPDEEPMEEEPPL

SMILES | HDAC4 percent inhibition at 10 μM (HDAC4) | Slow-binding mechanism from kobs vs inhibitor concentration (HDAC6 [1]) | HDAC2 percent inhibition at 10 μM (HDAC2) | Hydrolysis in the absence of enzyme [2] | HDAC1 percent inhibition at 10 μM (HDAC1) | Dependence of HDAC6 inhibition on preincubation time (HDAC6 [3]) | HDAC6 percent inhibition at 10 μM (HDAC6 [4])
FC(F)c1nnc(-c2cnc(NCc3ccccc3)nc2)o1 [Compound 6, N-Benzyl-5-[5-(difluoromethyl)-1,3,4-oxadiazol-2-yl]pyrimidin-2-amine] | no activity | mechanism II | no activity | does not undergo hydrolysis | no activity | highly dependent on the preincubation time | –
COc1ccc(CNc2ncc(-c3nnc(C(F)F)o3)cn2)cc1 [Compound 7, 5-[5-(Difluoromethyl)-1,3,4-oxadiazol-2-yl]-N-(4-methoxybenzyl)pyrimidin-2-amine] | no activity | – | no activity | – | no activity | – | –
CCCCN(Cc1ccc(-c2nnc(C(F)F)o2)cc1)C(=O)Nc1ccccc1 [Compound 9, 1-Butyl-1-{4-[5-(difluoromethyl)-1,3,4-oxadiazol-2-yl]benzyl}−3-phenylurea] | inactive | – | inactive | – | inactive | – | only moderate inhibitory activity
CCCCN(Cc1ccc(-c2nnc(C(F)F)o2)cc1)C(=O)c1ccccc1 [Compound 10, N-Butyl-N-{4-[5-(difluoromethyl)-1,3,4-oxadiazol-2-yl]benzyl}benzamide] | inactive | – | inactive | – | inactive | – | only moderate inhibitory activity
CN(C)c1ccc(C(=O)N(CC(=O)NCc2ccccc2)Cc2ccc(-c3nnc(C(F)F)o3)cc2)cc1 [Compound 12, N-[2-(Benzylamino)-2-oxoethyl]-N-{4-[5-(difluoromethyl)-1,3,4-oxadiazol-2-yl]benzyl}−4-(dimethylamino)benzamide] | inactive | – | inactive | – | inactive | – | only moderate inhibitory activity
O=C(NNC(=O)C(F)F)c1cnc(NCc2ccccc2)nc1 [Compound 13, 2-(Benzylamino)-N’-(2,2-difluoroacetyl)pyrimidine-5-carbohydrazide] | – | – | – | – | – | – | does not show any inhibitory activity
FC(F)(F)c1nnc(-c2cnc(NCc3ccccc3)nc2)o1 [Compound 17, N-Benzyl-5-[5-(trifluoromethyl)-1,3,4-oxadiazol-2-yl]pyrimidin-2-amine] | no inhibition | single-step slow-binding mechanism I | no inhibition | – | no inhibition | substantial decrease in the HDAC6 IC50 values upon preincubation | –
O=C(CCCCCCC(=O)Nc1ccccc1)NO [Vorinostat, reference compound] | – | – | – | – | – | did not depend on the preincubation time | –
